The text below walks through data of patent US20230123140A1, “DOSE TREATMENTS OF TAUOPATHIES” (AC Immune SA, priority 2020, published 2023).

Series [1] in a line: 4-week toxicity study in mice followed by 2 weeks of recovery. It is filed as in vivo, mouse. As to conditions: both sexes, CD1, mouse, in vivo, po. As for the experimental part:
(§1) This study was conducted to evaluate the potential toxicity of ACI-3024 when given daily by oral gavage to CD1 mice for 4 weeks, followed by a 2-week recovery period. Doses of 100, 300 and 1000 mg/kg were administered by p.o. to 10 animals/sex/group daily. The control animals were administered vehicle. The dose volume was 10 mL/kg for all groups.
(§2) Clinical signs, body weights, food consumption, ophthalmology, clinical pathology were evaluated. For each sex/group, a complete necropsy was conducted on 10 animals at the end of the dosing period and on 6 (only control and high dose groups) surviving animals at end of the recovery period.

In the next series the test system is CD1 mice. The series is described as above. The format is in vivo, mouse. As to conditions: 1000 mg/kg/day p.o., Day 9. As for the experimental part: as §1, §2
In series [2] the test system is Central Nervous System function. Briefly: Central nervous system evaluation in mice (functional observation battery). The format is in vivo, mouse. As to conditions: single oral administration 100, 300 or 750 mg/kg, female CD1 mice. As for the experimental part:
This study was conducted to evaluate the potential modifications of central nervous system (CNS) activity by ACI-3024 when given as single dose to CD1 mice.
Doses of 100, 300 and 750 mg/kg were administered by oral gavage to 8 females/group. The control animals were administered vehicle. The dose volume was 10 mL/kg for all groups. Approximately 2, 4, 6 and 24 hours after the treatment, each mouse was subjected to a functional observation battery in order to investigate possible treatment-induced effects on the CNS or in any of its domains: neurologic, autonomic and behavioral.

The test system of another series is cardiovascular system. Nature of the series: Cardiovascular evaluation in telemetrized mini-pig. It is filed as in vivo. As to conditions: single oral dose 0, 50, 150 and 450 mg/kg, male Gottingen mini-pigs. As for the experimental part:
This study was conducted to evaluate the potential effects on the cardiovascular system of ACI-3024 when given as single dose to telemetrized Gottingen mini-pig.
Doses of 0, 50, 150 and 450 mg/kg were administered by oral gavage to 4 males/group. The dose volume was set at 5 mL/kg. The study was a randomized cross over design which consisted of four phases separated by seven days of wash out. In each phase each animal received as single administration of one selected doses. Through the phases each animal received all the dose levels once. ECG (heart rate, duration of the PR, QRS, QT, QTcF (QT interval corrected by Fridericia) and RR intervals (millisecond; ms), blood pressure (systolic, diastolic, and mean arterial pressure) and body temperature parameters through a transmitter implanted into the animals were continuously recorded starting from 30 minutes before dosing up to 20 hours after dose. Different timepoints during the recording period were sampled (−30 min (before dose) and 1 h, 2 h, 4 h, 6 h, 8 h, 12 h and 20 h (after dose)), per each timepoint 5-minute segment was used for study purposes.

Series [3] deals with Tg4510 transgenic mouse model. Briefly: Studies of ACI-3024 in the Tg4510 transgenic mouse model (CSF target level). It is filed as in vivo. As to conditions: derived from studies in Tg4510 transgenic mouse model. As for the experimental part: The present invention is directed to a compound ACI-3024 for use in the treatment, prevention or alleviation of a disorder or an abnormality associated with Tau protein aggregates or a tauopathy comprising administering said compound at an amount up to or equal to 1500 mg/day to a human subject in need thereof wherein the compound ACI-3024 is constantly present in the human subject CSF at a concentration above or equal to 30 nM level at predose, preferably above or equal to 90 nM level at predose. The predefined predose level of ACI-3024 of 30 nM is derived from studies of ACI-3024 in the Tg4510 transgenic mouse model which reflects the clinical manifestation of tauopathies and determines the minimum concentration of the compound in the CSF necessary to achieve clinical efficacy before another dose of the same compound is given (ie a threshold value below which efficacy would be lost). Preferably, the compound ACI-3024 is present in the human subject CSF at a concentration above or equal to 30 nM, preferably above or equal to 90 nM, during the treatment.

Series [4] is described as follows: Toxicokinetics in the 4-week mini-pig toxicity study. It is filed as in vivo. The settings on record: for AUC(0-t) / Cmax / Tmax: Gottingen, minipig, plasma, Day 28, 450 mg/kg oral. As for the experimental part: Doses tested, 50, 150 and 450 mg/kg were given by p.o. to 3 animals/sex/group daily. The control animals were administered vehicle. The dose volume was 5 mL/kg for all groups.
Toxico Kinetic (TK) was evaluated on all animals on study Day 1 and Day 28 at different time points.

[5] abbreviates: both sexes, average M/F minipigs.

On to `Fc1ccc2c3c([nH]c2c1)CCN(c1ccc2oc(N4CCOCC4)nc2c1)C3` [ACI-3024], for which, in series [1], the NOAEL (in general, the highest dose or exposure tested at which no adverse effect was seen) at 4 weeks stood at 300 mg/kg/day. In the series on CD1 mice, the “mortality / premature euthanasia” value is reported as “only one female animal was prematurely euthanized”. In addition, the “effect on Central Nervous System function” value in series [2] is “no effect”. In the series on cardiovascular system, the “effect on cardiovascular parameters and body temperature” value is given as “no effect”. The “minimum predose CSF level necessary for efficacy (target)” value in series [3] came to 30 nM. Also, the “dose proportionality of plasma exposure” value in series [4] (50 to 450 mg/kg, except males on Day 1) was “approximately dose-proportionally”. For the same compound, in series [4] (female minipigs), the AUC(0-t) (as a rule, the area under the concentration-time curve up to a stated or last time point) is 101 µg·h/mL; the highest concentration (Cmax) (usually the maximum level reached in the sampled fluid or tissue) was 7350 ng/mL; the Tmax – broadly, the time at which the peak concentration occurs – came to 4 h. In series [4] (male minipigs), the AUC(0-t) is 233 µg·h/mL, the Cmax amounted to 12300 ng/mL and the Tmax is 6 h. For the same compound, in series [4] (setting [5]), the AUC(0-t) stood at 167 µg·h/mL, the Cmax came to 9840 ng/mL and the Tmax was found to be 5 h.
